Data: the kinase profiling compilation of Christmann-Franck et al. (2016)

What was measured:
Assay in all cases: radiometric filter-binding kinase assay, Kinase HotSpot
Details in all cases: compound 0.5 µM; ATP 10 µM
ABL2 (human) = ABL2 (human) (UniProt P42684)
ACVRL1 (human) = ACVRL1 (human) (UniProt P37023)
AKT1 (human) = AKT1 (human) (UniProt P31749)
AURKB (human) = AURKB (human) (UniProt Q96GD4)
BRSK2 (human) = BRSK2 (human) (UniProt Q8IWQ3)
CDK1 CCNA2 (human) = CDK1 CCNA2 (human) (UniProt P06493+P20248)
CDK2 CCNA2 (human) = CDK2 CCNA2 (human) (UniProt P24941+P20248)
CDK4 CCND1 (human) = CDK4 CCND1 (human) (UniProt P24385+P11802)
CHEK2 (human) = CHEK2 (human) (UniProt O96017)
CSK (human) = CSK (human) (UniProt P41240)
CSNK1E (human) = CSNK1E (human) (UniProt P49674)
CSNK1G2 (human) = CSNK1G2 (human) (UniProt P78368)
CSNK2A2 (human) = CSNK2A2 (human) (UniProt P19784)
EPHA2 (human) = EPHA2 (human) (UniProt P29317)
EPHB1 (human) = EPHB1 (human) (UniProt P54762)
FLT3 (human) = FLT3 (human) (UniProt P36888)
FRK (human) = FRK (human) (UniProt P42685)
GRK6 (human) = GRK6 (human) (UniProt P43250)
GSG2 (human) = GSG2 (human) (UniProt Q8TF76)
HIPK4 (human) = HIPK4 (human) (UniProt Q8NE63)
IGF1R (human) = IGF1R (human) (UniProt P08069)
KIT (human) = KIT (human) (UniProt P10721)
LCK (human) = LCK (human) (UniProt P06239)
MAP4K2 (human) = MAP4K2 (human) (UniProt Q12851)
MAPKAPK2 (human) = MAPKAPK2 (human) (UniProt P49137)
MARK1 (human) = MARK1 (human) (UniProt Q9P0L2)
MARK3 (human) = MARK3 (human) (UniProt P27448)
MINK1 (human) = MINK1 (human) (UniProt Q8N4C8)
MKNK2 (human) = MKNK2 (human) (UniProt Q9HBH9)
NEK4 (human) = NEK4 (human) (UniProt P51957)
NTRK2 (human) = NTRK2 (human) (UniProt Q16620)
NUAK2 (human) = NUAK2 (human) (UniProt Q9H093)
OXSR1 (human) = OXSR1 (human) (UniProt O95747)
PIM1 (human) = PIM1 (human) (UniProt P11309)
PIM3 (human) = PIM3 (human) (UniProt Q86V86)
PRKCB1 (human) = PRKCB1 (human) (UniProt P05771)
PRKD1 (human) = PRKD1 (human) (UniProt Q15139)
RPS6KA3 KD1 KD2 (human) = RPS6KA3 KD1 KD2 (human) (UniProt P51812)
STK17A (human) = STK17A (human) (UniProt Q9UEE5)
STK39 (human) = STK39 (human) (UniProt Q9UEW8)
TAOK3 (human) = TAOK3 (human) (UniProt Q9H2K8)
[1] = target: TYK2 JH1 catalytic (human) (UniProt P29597)

Chain of KIT (human) (P10721 whole entry, looked up): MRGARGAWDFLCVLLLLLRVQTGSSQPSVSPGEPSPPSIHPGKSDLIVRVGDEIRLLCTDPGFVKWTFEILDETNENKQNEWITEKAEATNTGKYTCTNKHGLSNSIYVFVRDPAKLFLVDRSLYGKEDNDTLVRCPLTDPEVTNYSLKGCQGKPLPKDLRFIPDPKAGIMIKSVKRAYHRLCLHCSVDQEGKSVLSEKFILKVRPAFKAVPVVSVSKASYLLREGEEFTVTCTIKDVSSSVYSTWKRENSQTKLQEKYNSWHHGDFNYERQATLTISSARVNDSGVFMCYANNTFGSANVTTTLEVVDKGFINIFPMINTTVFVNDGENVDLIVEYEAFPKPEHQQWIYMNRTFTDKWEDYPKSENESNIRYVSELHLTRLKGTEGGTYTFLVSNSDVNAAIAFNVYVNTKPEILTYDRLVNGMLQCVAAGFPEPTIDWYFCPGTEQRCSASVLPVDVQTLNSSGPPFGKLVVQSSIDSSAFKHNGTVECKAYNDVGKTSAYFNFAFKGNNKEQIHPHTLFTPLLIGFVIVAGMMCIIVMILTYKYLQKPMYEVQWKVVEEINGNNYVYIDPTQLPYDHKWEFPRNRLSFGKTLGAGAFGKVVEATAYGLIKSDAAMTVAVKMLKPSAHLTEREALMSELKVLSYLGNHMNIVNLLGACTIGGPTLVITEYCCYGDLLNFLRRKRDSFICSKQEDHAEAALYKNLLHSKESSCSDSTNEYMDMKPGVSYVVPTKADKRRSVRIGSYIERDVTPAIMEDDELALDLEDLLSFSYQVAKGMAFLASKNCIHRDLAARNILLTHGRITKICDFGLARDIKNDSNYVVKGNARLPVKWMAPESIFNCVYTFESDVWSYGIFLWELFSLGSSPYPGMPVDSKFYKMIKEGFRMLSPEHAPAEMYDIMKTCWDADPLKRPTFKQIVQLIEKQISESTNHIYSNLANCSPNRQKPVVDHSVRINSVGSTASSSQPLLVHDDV
Chain of HIPK4 (human) (Q8NE63 whole entry, looked up): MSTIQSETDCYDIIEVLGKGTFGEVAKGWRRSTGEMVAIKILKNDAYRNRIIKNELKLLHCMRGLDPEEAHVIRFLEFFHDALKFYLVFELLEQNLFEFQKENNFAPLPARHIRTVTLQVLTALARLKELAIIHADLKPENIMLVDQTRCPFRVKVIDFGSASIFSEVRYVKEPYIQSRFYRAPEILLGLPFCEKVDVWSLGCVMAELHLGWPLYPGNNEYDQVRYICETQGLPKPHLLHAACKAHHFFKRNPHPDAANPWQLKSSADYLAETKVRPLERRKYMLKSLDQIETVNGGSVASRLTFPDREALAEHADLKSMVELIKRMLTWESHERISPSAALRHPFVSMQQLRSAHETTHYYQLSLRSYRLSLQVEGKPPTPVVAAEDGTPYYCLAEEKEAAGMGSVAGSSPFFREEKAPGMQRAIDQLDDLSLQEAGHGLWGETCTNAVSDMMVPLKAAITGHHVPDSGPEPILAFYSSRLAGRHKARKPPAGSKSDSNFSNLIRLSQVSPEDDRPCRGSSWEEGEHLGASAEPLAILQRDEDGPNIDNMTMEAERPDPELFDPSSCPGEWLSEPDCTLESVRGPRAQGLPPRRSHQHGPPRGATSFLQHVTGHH
Chain of CHEK2 (human) (O96017 whole entry, looked up): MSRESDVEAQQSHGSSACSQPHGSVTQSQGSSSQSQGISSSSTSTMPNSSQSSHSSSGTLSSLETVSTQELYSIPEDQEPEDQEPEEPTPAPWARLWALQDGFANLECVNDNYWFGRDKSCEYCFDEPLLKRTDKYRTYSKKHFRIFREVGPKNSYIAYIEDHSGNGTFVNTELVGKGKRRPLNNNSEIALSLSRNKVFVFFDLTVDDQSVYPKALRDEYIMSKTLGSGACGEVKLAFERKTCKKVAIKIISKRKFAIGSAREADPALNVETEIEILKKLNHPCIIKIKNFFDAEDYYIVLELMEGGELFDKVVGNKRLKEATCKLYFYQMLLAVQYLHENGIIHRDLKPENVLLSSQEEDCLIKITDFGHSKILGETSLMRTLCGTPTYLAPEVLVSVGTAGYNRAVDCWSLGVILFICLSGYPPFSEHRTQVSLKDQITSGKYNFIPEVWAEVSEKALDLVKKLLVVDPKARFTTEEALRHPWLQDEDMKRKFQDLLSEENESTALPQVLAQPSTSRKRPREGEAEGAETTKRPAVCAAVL
Chain of PIM1 (human) (P11309 whole entry, looked up): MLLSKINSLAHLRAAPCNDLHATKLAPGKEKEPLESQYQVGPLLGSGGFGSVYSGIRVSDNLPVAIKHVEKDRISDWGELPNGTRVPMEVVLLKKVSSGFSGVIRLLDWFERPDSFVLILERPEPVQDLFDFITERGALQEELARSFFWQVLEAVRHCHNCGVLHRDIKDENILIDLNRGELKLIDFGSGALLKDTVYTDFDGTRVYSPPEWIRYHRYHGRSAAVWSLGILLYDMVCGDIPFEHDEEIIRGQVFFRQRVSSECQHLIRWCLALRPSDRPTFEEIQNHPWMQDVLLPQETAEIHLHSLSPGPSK
Chain of GRK6 (human) (P43250 whole entry, looked up): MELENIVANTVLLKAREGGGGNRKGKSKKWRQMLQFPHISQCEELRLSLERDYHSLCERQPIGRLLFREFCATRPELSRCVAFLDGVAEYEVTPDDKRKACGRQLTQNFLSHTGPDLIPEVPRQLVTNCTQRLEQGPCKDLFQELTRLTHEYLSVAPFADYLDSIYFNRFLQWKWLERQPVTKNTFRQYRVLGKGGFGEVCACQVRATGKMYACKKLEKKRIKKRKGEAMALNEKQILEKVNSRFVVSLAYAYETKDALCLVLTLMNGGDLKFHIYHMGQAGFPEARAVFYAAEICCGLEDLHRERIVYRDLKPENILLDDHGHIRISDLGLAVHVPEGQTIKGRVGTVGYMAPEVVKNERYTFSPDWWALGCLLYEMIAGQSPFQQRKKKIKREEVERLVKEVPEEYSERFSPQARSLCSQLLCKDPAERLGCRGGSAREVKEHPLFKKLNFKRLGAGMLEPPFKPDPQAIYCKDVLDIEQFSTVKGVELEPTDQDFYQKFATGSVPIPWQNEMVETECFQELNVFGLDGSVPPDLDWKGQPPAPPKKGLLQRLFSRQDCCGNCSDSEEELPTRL
Chain of ACVRL1 (human) (P37023 whole entry, looked up): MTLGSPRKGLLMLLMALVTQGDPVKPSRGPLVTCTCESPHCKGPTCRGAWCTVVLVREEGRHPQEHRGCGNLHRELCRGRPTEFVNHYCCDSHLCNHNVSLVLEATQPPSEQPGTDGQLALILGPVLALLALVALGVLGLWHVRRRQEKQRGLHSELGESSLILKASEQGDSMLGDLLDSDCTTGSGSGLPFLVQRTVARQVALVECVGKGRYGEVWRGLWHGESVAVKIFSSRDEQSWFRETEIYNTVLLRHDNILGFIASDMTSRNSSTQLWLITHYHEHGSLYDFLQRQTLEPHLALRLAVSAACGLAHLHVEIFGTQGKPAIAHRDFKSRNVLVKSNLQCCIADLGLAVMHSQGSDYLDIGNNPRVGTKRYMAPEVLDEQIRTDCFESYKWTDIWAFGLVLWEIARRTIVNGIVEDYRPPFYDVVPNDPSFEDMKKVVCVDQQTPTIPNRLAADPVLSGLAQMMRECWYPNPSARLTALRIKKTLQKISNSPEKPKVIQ
Chain of NUAK2 (human) (Q9H093 whole entry, looked up): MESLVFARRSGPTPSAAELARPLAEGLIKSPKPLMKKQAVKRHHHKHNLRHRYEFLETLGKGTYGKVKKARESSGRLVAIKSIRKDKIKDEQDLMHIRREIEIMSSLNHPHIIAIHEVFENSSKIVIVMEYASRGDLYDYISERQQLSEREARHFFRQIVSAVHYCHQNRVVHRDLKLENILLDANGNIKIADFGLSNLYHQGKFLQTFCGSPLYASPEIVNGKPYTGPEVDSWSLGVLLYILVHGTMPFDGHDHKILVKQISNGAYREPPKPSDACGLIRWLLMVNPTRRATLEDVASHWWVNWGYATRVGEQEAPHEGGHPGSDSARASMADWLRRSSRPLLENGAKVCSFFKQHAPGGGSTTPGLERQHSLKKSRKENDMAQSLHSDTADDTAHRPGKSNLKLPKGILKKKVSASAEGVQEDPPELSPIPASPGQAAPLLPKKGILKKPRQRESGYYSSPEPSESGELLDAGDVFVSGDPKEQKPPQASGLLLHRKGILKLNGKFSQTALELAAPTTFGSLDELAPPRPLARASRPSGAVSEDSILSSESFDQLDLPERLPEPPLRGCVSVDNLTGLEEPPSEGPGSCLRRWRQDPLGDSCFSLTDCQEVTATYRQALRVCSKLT
Chain of MKNK2 (human) (Q9HBH9 whole entry, looked up): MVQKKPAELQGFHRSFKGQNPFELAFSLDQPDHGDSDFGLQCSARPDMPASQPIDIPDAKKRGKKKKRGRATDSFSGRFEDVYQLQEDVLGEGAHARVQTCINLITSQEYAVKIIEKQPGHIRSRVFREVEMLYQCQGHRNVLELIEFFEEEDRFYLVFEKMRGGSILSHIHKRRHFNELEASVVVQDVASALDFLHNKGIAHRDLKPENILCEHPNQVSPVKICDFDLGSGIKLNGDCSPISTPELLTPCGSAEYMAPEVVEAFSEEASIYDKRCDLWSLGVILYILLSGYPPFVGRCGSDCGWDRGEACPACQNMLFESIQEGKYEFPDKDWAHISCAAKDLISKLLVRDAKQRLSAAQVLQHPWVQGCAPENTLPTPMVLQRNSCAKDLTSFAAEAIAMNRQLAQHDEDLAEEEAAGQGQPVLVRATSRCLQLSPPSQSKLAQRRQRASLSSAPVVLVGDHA

Cc1nc2cc3nc(-c4cccs4)cnc3cc2n1C
residual activity (ABL2 (human)): 100%
residual activity (ACVRL1 (human)): 109%
residual activity (AKT1 (human)): 114%
residual activity (AURKB (human)): 84.9%
residual activity (BRSK2 (human)): 98%
residual activity (CDK1 CCNA2 (human)): 102%
residual activity (CDK2 CCNA2 (human)): 104%
residual activity (CDK4 CCND1 (human)): 108%
residual activity (CHEK2 (human)): 94.6%
residual activity (CSK (human)): 101%
residual activity (CSNK1E (human)): 94.5%
residual activity (CSNK1G2 (human)): 103%
residual activity (CSNK2A2 (human)): 99%
residual activity (EPHA2 (human)): 107%
residual activity (EPHB1 (human)): 107%
residual activity (FLT3 (human)): 27.5%
residual activity (FRK (human)): 98.9%
residual activity (GRK6 (human)): 104%
residual activity (GSG2 (human)): 108%
residual activity (HIPK4 (human)): 103%
residual activity (IGF1R (human)): 96.4%
residual activity (KIT (human)): 40.4%
residual activity (LCK (human)): 86.3%
residual activity (MAP4K2 (human)): 110%
residual activity (MAPKAPK2 (human)): 95.4%
residual activity (MARK1 (human)): 102%
residual activity (MARK3 (human)): 105%
residual activity (MINK1 (human)): 98.9%
residual activity (MKNK2 (human)): 108%
residual activity (NEK4 (human)): 95.2%
residual activity (NTRK2 (human)): 64.7%
residual activity (NUAK2 (human)): 96.7%
residual activity (OXSR1 (human)): 99.4%
residual activity (PIM1 (human)): 103%
residual activity (PIM3 (human)): 91.2%
residual activity (PRKCB1 (human)): 107%
residual activity (PRKD1 (human)): 97.7%
residual activity (RPS6KA3 KD1 KD2 (human)): 96.3%
residual activity (STK17A (human)): 80.5%
residual activity (STK39 (human)): 79.8%
residual activity (TAOK3 (human)): 116%
residual activity [1]: 102%
